Measurements reported in patent publication US7754709B2 (Solvay Pharmaceuticals BV, priority 2003, dated 2010).

Tests used:
Format in all cases: cell-based
[1] = target: T1, 17β-hydroxysteroid dehydrogenase type 2 (Homo sapiens, UniProt P37059); assay: Inhibition of 17β-HSD type 2 in MCF-7 cells stably expressing the isoenzyme (HPLC, tritium labeled estradiol); settings: 2 nM estradiol, read-out: % Inhibition of the 17β-HSD enzyme type 2 (HSD2); for inhibition at 1 µM: MCF7, 1 μM compound; for inhibition at 10 µM: MCF7, 10 μM compound
T1 construct: expressed in transfected cells; host or cells: MCF-7
T1 sequence (P37059 1-387): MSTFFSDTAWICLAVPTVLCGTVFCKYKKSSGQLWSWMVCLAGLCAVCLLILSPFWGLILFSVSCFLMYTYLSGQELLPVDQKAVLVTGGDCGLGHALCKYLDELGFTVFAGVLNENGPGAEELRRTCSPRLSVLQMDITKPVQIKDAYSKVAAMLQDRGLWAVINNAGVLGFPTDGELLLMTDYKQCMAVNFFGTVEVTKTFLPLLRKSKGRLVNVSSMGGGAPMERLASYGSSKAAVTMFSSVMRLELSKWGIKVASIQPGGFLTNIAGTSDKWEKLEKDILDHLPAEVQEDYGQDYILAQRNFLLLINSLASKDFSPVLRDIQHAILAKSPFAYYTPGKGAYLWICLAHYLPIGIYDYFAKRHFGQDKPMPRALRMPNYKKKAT
From the text: (§1) Biological Testing Materials and Methods 1. Inhibition of the 17β-hydroxysteroid dehydrogenase type 1, type 2 and type 3 enzyme
(§2) The compounds were screened in respect of 17β-HSD enzyme activity in vitro on established M CF-7 cell lines, each stably expressing one of the respective 17β-HSD isoenzymes. The interconversion of substrate by each isoenzyme and the 17β-HSD inhibiting activity of chemical compounds in these cell lines were detected by HPLC system.
(§3) Varying amounts of the test compounds were incubated in the growth medium of the 17β-HSD expressing cells together tritium labeled substrate (2 nM estrone for 17β-HSD type 1; 2 nM estradiol for 17β-HSD type 2; and 2 nM androstenedione for 17β-HSD type 3). The medium samples were removed after exact incubation time and the reaction is stopped by trichloroacetic acid (TCA). The samples were analyzed by HPLC-coupled flow scintillation analysis.
(§4) For each enzyme type, the HSD-inhibiting activity of an individual test compound was calculated by comparing the conversion of a control sample without any test compound (referred to as “Negative Control”) to the (reduced) conversion of the test sample containing the particular compound to be tested (referred to as “Test Sample”).
(§5) Two concentrations of each compound were used. The number of the compound refers to the numbers indicated in the Experimental Section.

[2] = target: T2, 17β-hydroxysteroid dehydrogenase type 3 (Homo sapiens, UniProt P37058); assay: Inhibition of 17β-HSD type 3 in MCF-7 cells stably expressing the isoenzyme (HPLC, tritium labeled androstenedione); settings: 2 nM androstenedione, read-out: % Inhibition of the 17β-HSD enzyme type 3 (HSD3); for inhibition at 1 µM: MCF7, 1 μM compound; for inhibition at 10 µM: MCF7, 10 μM compound
T2 construct: expressed in transfected cells; host or cells: MCF-7
T2 sequence (P37058 1-310): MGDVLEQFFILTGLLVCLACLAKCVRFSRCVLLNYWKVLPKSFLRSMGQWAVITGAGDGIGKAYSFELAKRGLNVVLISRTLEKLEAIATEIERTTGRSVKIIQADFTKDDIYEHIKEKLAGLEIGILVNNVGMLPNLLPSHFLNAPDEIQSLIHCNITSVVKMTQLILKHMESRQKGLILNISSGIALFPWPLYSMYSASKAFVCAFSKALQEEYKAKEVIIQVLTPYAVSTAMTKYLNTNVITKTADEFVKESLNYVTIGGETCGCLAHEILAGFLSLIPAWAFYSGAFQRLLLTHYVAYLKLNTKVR
From the text: as §1, §2, §3, §4, §5

[3] = target: T3, 17β-hydroxysteroid dehydrogenase type 1 (Homo sapiens, UniProt P14061); assay: Inhibition of 17β-HSD type 1 in MCF-7 cells stably expressing the isoenzyme (HPLC, tritium labeled estrone); settings: 2 nM estrone, read-out: % Inhibition of the 17β-HSD enzyme type 1 (HSD1); for inhibition at 1 µM: MCF7, 1 μM compound; for inhibition at 10 µM: MCF7, 10 μM compound
T3 construct: expressed in transfected cells; host or cells: MCF-7
T3 sequence (P14061 1-328): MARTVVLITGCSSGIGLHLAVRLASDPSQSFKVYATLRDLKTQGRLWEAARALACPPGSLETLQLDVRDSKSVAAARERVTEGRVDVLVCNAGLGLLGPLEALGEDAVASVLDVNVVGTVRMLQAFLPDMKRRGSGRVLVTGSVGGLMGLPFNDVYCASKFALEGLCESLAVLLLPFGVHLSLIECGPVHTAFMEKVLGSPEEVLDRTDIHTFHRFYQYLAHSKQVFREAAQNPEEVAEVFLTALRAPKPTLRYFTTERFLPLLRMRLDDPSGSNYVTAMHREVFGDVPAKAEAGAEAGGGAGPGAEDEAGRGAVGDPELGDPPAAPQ
From the text: as §1, §2, §3, §4, §5

Compound	inhibition at 1 µM [1]	inhibition at 10 µM [1]	inhibition at 1 µM [2]	inhibition at 10 µM [2]	inhibition at 1 µM [3]	inhibition at 10 µM [3]
O=C1CCCc2c1sc1nc3n(c(=O)c21)CCCC3 [Compound 3e]	25.7%	16.3%	38.5%	47.4%	6.3%	35.8%
CCOC(=O)C1CCc2nc3sc4c(c3c(=O)n2CC1)CCCC4 (stereo not drawn) [Compound 16, 1,2,3,4,7,8,9,10,11,13-Decahydro-13-oxo-[1]benzothieno[2′,3′:4,5]pyrimido[1,2-a]azepine-9-carboxylic acid ethyl ester]	3%	24.8%	13.6%	22.9%	17.2%	18.6%
CC(C)(C)C1CCc2c(sc3nc4n(c(=O)c23)CCCCC4)C1 (stereo not drawn) [Compound 29, 3-t-Butyl-2,3,4,7,8,9,10,11-octahydro-[1]benzothieno[2′,3′: 4,5]pyrimido-[1,2-a]azepin-13(1H)-one]	13.1%	10.1%	14.9%	25.8%	-1%	1.3%
O=CC1=C([S+]([O-])c2ccccc2)c2sc3nc4n(c(=O)c3c2CC1)CCCCC4 (stereo not drawn) [Compound 30, 1,2,7,8,9,10,11,13-Octahydro-13-oxo-4-(phenylsulfinyl)-[1]benzothieno[2′,3′: 4,5]-pyrimido-[1,2-a]azepine-3-carbaldehyde]	12.8%	24.8%	11.1%	31.2%	23.1%	49%
O=C1CCCc2c1sc1nc3ccccn3c(=O)c21 [Compound 26, 2,3-Dihydro-12H-[l]benzothieno[2,3-d]pyrido[1,2-a]pyrimidin-4, 12(1H)-dione]	15.1%	16.4%	-2.1%	0.3%	6.4%	-0.8%
CCCSC1=C(CO)CCc2c1sc1nc3n(c(=O)c21)CCCCC3 [Compound 6c, 1,2,8,9,10,11-Hexahydro-3-(hydroxymethyl)-4-(propylthio)-[1]benzothieno[2′,3′:4,5]-pyrimido-[1,2-a]azepine-13(7H)-one]	37.5%	36.7%	20.4%	38.1%	47.7%	82.4%
COC(=O)C1CCc2nc3sc4c(c3c(=O)n2CC1)CCC(C=O)=C4OC (stereo not drawn) [Compound 24, 3-Formyl-4-methoxy-1,2,7,8,9,10,11,13-octahydro-13-oxo-[1]benzothieno[2′,3′: 4,5]pyrimido [1,2-a]azepine-9-carboxylic acid methyl ester]	3.1%	19.3%	18%	59.6%	24.9%	32.3%
Cc1nc2sc3c(c2c(=O)n1C)CCCC3 [Compound 2g, 5,6,7,8-Tetrahydro-2,3-dimethyl[1]benzothieno[2,3-d]pyrimidin-4(3H)-one]	44.9%	24.9%	51.7%	51.3%	30.7%	37%
CC1CCc2nc3sc4c(c3c(=O)n2CC1)CCCC4 (stereo not drawn) [Compound 14, 9-Methyl-2,3,4,7,8,9,10,11-octahydro-[1]benzothieno[2′,3′:4,5]pyrimido[1,2-a]azepin-13(1H)-one]	5.9%	14.9%	27.6%	34.2%	12.8%	19.6%
CCCCSC1=C(C=O)CCc2c1sc1nc3n(c(=O)c21)CCCCC3 [Compound 5d, 1,2,7,8,9,10,11,13-Octahydro-13-oxo-4-(butylthio)[1]benzothieno[2′,3′:4,5]-pyrimido-[1,2-a]azepine-3-carboxaldehyde]	8.2%	15.1%	32.6%	72%	54.1%	100%
CCCSC1=C(C=O)CCc2c1sc1nc3n(c(=O)c21)CCC(C(=O)OCC)CC3 (stereo not drawn) [Compound 22, 3-Formyl-1,2,7,8,9,10, 11,13-octahydro-13-oxo-4-(propylthio)-[1]benzothieno [2′,3′: 4,5]pyrimido[1,2-a]azepine-9-carboxylic acid ethyl ester]	6.8%	16.1%	25.5%	100%	24.3%	46.5%
CC1CCc2c(sc3nc4n(c(=O)c23)CCCCC4)C1 (stereo not drawn) [Compound 27, 3-Methyl-2,3,4,7,8,9, 10,11-octahydro-[1]benzothieno[2′,3′: 4,5]pyrimido-[1,2-a]azepin-13(1H)-one]	5.3%	3.2%	22.9%	24.9%	11.4%	25.6%
O=c1c2c3c(sc2nc2n1CCCC2)CCCC3 [Compound 2e, 1,2,3,4,7,8,9,10-Octahydro-12H-[1]benzothieno[2,3-d]pyrido[1,2-a]pyrimidin-12-one]	26%	28.9%	46.8%	38.8%	15.8%	20%
O=Cc1ccc2c(sc3nc4n(c(=O)c32)CCCCC4)c1Sc1ccccc1 [Compound 12, 7,8,9,10,11,13-Hexahydro-13-oxo-4-(phenylthio)-[1]benzothieno[2′,3′:4,5]pyrimido[1,2-a]azepine-3-carbaldehyde]	7%	8.9%	8.6%	25.5%	15.1%	87.9%
O=c1c2c3c(sc2nc2n1CCCCC2)CCC3 [Compound 2b, 1,2,3,6,7,8,9,10-Octahydro-12H-cyclopenta[4′,5′]thieno[2′,3′:4,5]pyrimido[1,2-a]-azepin-12-one]	15.9%	21.4%	4.2%	9.5%	21%	15%
CC1CCc2nc3sc4c(c3c(=O)n2CC1)CCC(C=O)=C4Cl (stereo not drawn) [Compound 20, 4-Chloro-9-methyl-1,2,7,8,9,10,11,13-octahydro-13-oxo-[1]benzothieno[2′,3′: 4,5]pyrimido [1,2-a]azepine-3-carbaldehyde]	11.2%	6.2%	32%	100%	10.4%	45.7%
O=c1c2c3c(sc2nc2n1CCC2)CCCC3 [Compound 2f, 2,3,6,7,8,9-Hexahydro[1]benzothieno[2,3-d]pyrrolo[1,2-a]pyrimidin-10(1H)-one]	37%	32.4%	48.2%	40.4%	19.9%	19.2%
